biological target: T1, STING (Homo sapiens, UniProt Q86WV6, G230A/H232R/R293Q/R71H); assay: cGAMP dose-response IFN induction in the presence of increasing compound concentrations; format: cell-based; conditions: FIGS. 16A-16D
T1 construct: host or cells: THP-1 / THP1-Dual / THP1-Lucia ISG cells
Description: Compounds UT009, UT019, UT073 and UT122 were tested for their ability to interfere with cGAMP induced STING signaling. FIGS. 16A-16D show dose response plots of cGAMP induced IFN induction in the presence of increasing concentrations of each compound.
(§1) Compounds UT017, UT018, UT019 and UT0122 were tested for their ability to interfere with STING signaling. Interferon production in the presence of increasing concentrations of UT017, UT018, UT019 or UT0122 were measured in THP-1 cell lines under basal conditions. […] Compound UT0122 was further tested in THP1-Lucia™ ISG cells for interferon production at varying concentration, in the presence of an increasing dose of a STING agonist cGAMP.

T1 sequence (Q86WV6 whole entry R71H/G230A/H232R/R293Q): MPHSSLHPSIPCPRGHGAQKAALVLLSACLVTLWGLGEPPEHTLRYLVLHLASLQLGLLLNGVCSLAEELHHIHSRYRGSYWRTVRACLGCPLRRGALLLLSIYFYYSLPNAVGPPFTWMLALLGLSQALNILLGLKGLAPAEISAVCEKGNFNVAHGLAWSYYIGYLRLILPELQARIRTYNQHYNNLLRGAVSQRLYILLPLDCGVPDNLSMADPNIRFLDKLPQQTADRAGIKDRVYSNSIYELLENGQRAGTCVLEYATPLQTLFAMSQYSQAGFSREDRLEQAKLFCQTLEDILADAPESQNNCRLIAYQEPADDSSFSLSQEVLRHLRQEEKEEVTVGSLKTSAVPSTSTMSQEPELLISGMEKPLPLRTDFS

Structure (SMILES) | cGAMP induced IFN induction in the presence of increasing concentrations of compound
CC1(C)C(=O)N(Cc2c(Cl)cccc2Oc2cc(F)cc(F)c2)c2cc(C(F)(F)F)ccc21 [UT073, 1-(2-chloro-6-(3,5-difluorophenoxy)benzyl)-3,3-dimethyl-6-(trifluoromethyl) indolin-2-one] | dose-dependent suppression of interferon production

biological target: T1, STING; assay: STING pathway activity in THP1-Dual/THP-1 cells upon cGAMP or MSA-2 stimulation (luciferase/interferon readout); format: cell-based; conditions: 10 μM compound; cGAMP (100 μM) or MSA-2 (10 μM) stimulation; THP-1 cells
Text: (§2) Methods of measuring STING activity and by extension, the activity of the compounds discussed herein, are known in the art. As an example, the STING pathway activity may be evaluated using reporter cell lines where a reporter gene (i.e., luciferase, GFP) is expressed under direct or indirect control of interferon response elements. For example, in an exemplary embodiment, the STING pathway can be measured using THP1-Dual™ cells (InvivoGen) which express the Lucia gene (a secreted luciferase reporter gene) under the control of an ISG54 minimal promoter in conjunction with five IFN-stimulated response elements. The STING pathway, when activated, stimulates interferon release which, in this model, will increase luciferase expression in a detectable manner. When inhibited, interferon release will be decreased, reducing luciferase expression in a detectable manner. The compounds can optionally be tested in the presence of external stimulation (i.e., using cGAMP, a natural agonist of STING, or MSA-2).
The STING pathway activity was evaluated in THP1-Dual™ cells (Invivogen). […] After incubating at 37° C. for 16 hours, the luciferase activity was measured by QUANTI-Luc™ (Invivogen).

Structure (SMILES) | inhibition at 10 µM [%]
CC1(C)C(=O)N(Cc2c(F)cccc2C(N)=O)c2cc(C(=O)NCc3c(F)cc(F)cc3F)ccc21 [UT126, 1-(2-carbamoyl-6-fluorobenzyl)-3,3-dimethyl-2-oxo-N-(2,4,6-trifluorobenzyl) indoline-6-carboxamide] | < 50
CC1(C)C(=O)N(Cc2c(F)cccc2C(F)(F)F)c2cc(C(=O)NCc3cc4ccccc4[nH]3)ccc21 [UT142, N-((1H-indol-2-yl)methyl)-1-(2-fluoro-6-(trifluoromethyl)benzyl)-3,3-dimethyl-2-oxoindoline-6-carboxamide] | > 50
Cc1nn(C)c(CN2C(=O)C(C)[C@@H](C)c3ccc(C(=O)NCc4cc5ccccc5[nH]4)cc32)c1Br (stereo partly drawn) [UT151, (4R)-N-((1H-indol-2-yl)methyl)-1-((4-bromo-1,3-dimethyl-1H-pyrazol-5-yl)methyl)-3,4-dimethyl-2-oxo-1,2,3,4-tetrahydroquinoline-7-carboxamide] | < 50
CC1C(=O)N(Cc2c(F)cccc2C(F)(F)F)c2cc(C(=O)NCc3c(F)cc(F)cc3F)ccc2[C@@H]1C (stereo partly drawn) [UT153, (4R)-1-(2-fluoro-6-(trifluoromethyl)benzyl)-3,4-dimethyl-2-oxo-N-(2,4,6-trifluorobenzyl)-1,2,3,4-tetrahydroquinoline-7-carboxamide] | < 50
CC1C(=O)N(Cc2c(F)cc(F)cc2F)c2cc(C(=O)NCc3cc4ccccc4[nH]3)ccc2[C@@H]1C (stereo partly drawn) [UT156, (4R)-N-((1H-indol-2-yl)methyl)-3,4-dimethyl-2-oxo-1-(2,4,6-trifluorobenzyl)-1,2,3,4-tetrahydroquinoline-7-carboxamide] | > 50
Cc1nn(C)c(CN2C(=O)C(C)(C)c3ccc(C(=O)NCc4cc5ccccc5[nH]4)cc32)c1C [UT157, N-((1H-indol-2-yl)methyl)-3,3-dimethyl-2-oxo-1-((1,3,4-trimethyl-1H-pyrazol-5-yl)methyl)indoline-6-carboxamide] | < 50
CC1C(=O)N(Cc2c(F)cccc2C(F)(F)F)c2cc(C(=O)NCc3cc4ccccc4[nH]3)ccc2[C@@H]1C (stereo partly drawn) [UT158, (4R)-N-((1H-indol-2-yl)methyl)-1-(2-fluoro-6-(trifluoromethyl)benzyl)-3,4-dimethyl-2-oxo-1,2,3,4-tetrahydroquinoline-7-carboxamide] | < 50
Cc1nn(C)c(CN2C(=O)C(C)[C@@H](C)c3ccc(C(=O)NCc4cc5ccccc5[nH]4)cc32)c1C (stereo partly drawn) [UT160, (4R)-N-((1H-indol-2-yl)methyl)-3,4-dimethyl-2-oxo-1-((1,3,4-trimethyl-1H-pyrazol-5-yl)methyl)-1,2,3,4-tetrahydroquinoline-7-carboxamide] | < 50

Now from value to compound:

inhibition at 10 µM [%] | Structure (SMILES)
< 50 | CC1(C)C(=O)N(Cc2c(Cl)cccc2Oc2cc(F)cc(F)c2)c2cc(C(F)(F)F)ccc21 [UT073, 1-(2-chloro-6-(3,5-difluorophenoxy)benzyl)-3,3-dimethyl-6-(trifluoromethyl) indolin-2-one]
> 50 | CC1(C)C(=O)N(Cc2c(F)cc(F)cc2F)c2cc(C(=O)NCc3cc4ccccc4[nH]3)ccc21 [UT141, N-((1H-indol-2-yl)methyl)-3,3-dimethyl-2-oxo-1-(2,4,6-trifluorobenzyl)indoline-6-carboxamide]
< 50 | CC1(C)C(=O)N(Cc2c(Oc3cc(F)cc(F)c3)cccc2C(F)(F)F)c2cc(C(F)(F)F)ccc21 [UT149, 1-(2-(3,5-difluorophenoxy)-6-(trifluoromethyl)benzyl)-3,3-dimethyl-6-(trifluoromethyl)indolin-2-one]
> 50 | CC1(C)C(=O)N(Cc2c(Oc3cc(F)cc(F)c3)cccc2C(F)(F)F)c2cc(C#N)ccc21 [UT200, 1-(2-(3,5-difluorophenoxy)-6-(trifluoromethyl)benzyl)-3,3-dimethyl-2-oxoindoline-6-carbonitrile]
< 50 | CC1(C)C(=O)N(Cc2c(Oc3cc(F)cc(F)c3)cccc2C(F)(F)F)c2ccc(C#N)cc21 [UT201, 1-(2-(3,5-difluorophenoxy)-6-(trifluoromethyl)benzyl)-3,3-dimethyl-2-oxoindoline-5-carbonitrile]
< 50 | CC1(C)C(=O)N(Cc2c(Oc3cc(F)cc(F)c3)cccc2C(F)(F)F)c2ccc(C(F)(F)F)cc21 [UT202, 1-(2-(3,5-difluorophenoxy)-6-(trifluoromethyl)benzyl)-3,3-dimethyl-5-(trifluoromethyl)indolin-2-one]
> 50 | CC1(C)C(=O)N(Cc2c(Oc3cc(F)cc(F)c3)cccc2C(F)(F)F)c2cc3c(cc21)OCO3 [UT203, 5-(2-(3,5-difluorophenoxy)-6-(trifluoromethyl)benzyl)-7,7-dimethyl-5,7-dihydro-6H-[1,3]dioxolo[4,5-f]indol-6-one]

same assay, conditions: THP-1 cells; 10 μM MSA2; increasing concentrations of compound

Induction of interferon production in the presence of MSA2 | Structure (SMILES)
inhibited in a dose dependent manner | CC1(C)C(=O)N(Cc2c(F)cc(F)cc2F)c2cc(C(=O)NCc3cc4ccccc4[nH]3)ccc21 [UT141, N-((1H-indol-2-yl)methyl)-3,3-dimethyl-2-oxo-1-(2,4,6-trifluorobenzyl)indoline-6-carboxamide]
inhibited in a dose dependent manner | CC1(C)C(=O)N(Cc2c(F)cccc2C(F)(F)F)c2cc(C(=O)NCc3cc4ccccc4[nH]3)ccc21 [UT142, N-((1H-indol-2-yl)methyl)-1-(2-fluoro-6-(trifluoromethyl)benzyl)-3,3-dimethyl-2-oxoindoline-6-carboxamide]
inhibited in a dose dependent manner | Cc1nn(C)c(CN2C(=O)C(C)(C)c3ccc(C(=O)NCc4cc5ccccc5[nH]4)cc32)c1C [UT157, N-((1H-indol-2-yl)methyl)-3,3-dimethyl-2-oxo-1-((1,3,4-trimethyl-1H-pyrazol-5-yl)methyl)indoline-6-carboxamide]

biological target: T1, STING; assay: Interferon production in THP-1 cells under basal conditions (no external stimulation); format: cell-based; conditions: 32 μM compound; no external stimulation; THP-1 cells
Text: as §2, §1
The STING pathway activity was evaluated in THP1-Dual™ cells (Invivogen). 1.5×10^5 THP1-Dual™ cells were seeded in 96-well plates and treated with the test compound followed by cGAMP (100 uM) or MSA-2 (10 uM, Science 2020, 369, eaba6098) 2 hours later. After incubating at 37° C. for 16 hours, the luciferase activity was measured by QUANTI-Luc™ (Invivogen).

Structure (SMILES) | Activity (inhibition under basal conditions) | inhibition at 32 µM [%]
CC1(C)C(=O)N(Cc2c(F)cccc2F)c2cc(-c3cn(-c4ccccc4)nn3)ccc21 [UT118, 1-(2,6-difluorobenzyl)-3,3-dimethyl-6-(1-phenyl-1H-1,2,3-triazol-4-yl)indolin-2-one] | D* | –
CC1(C)C(=O)N(Cc2c(F)cc(F)cc2F)c2cc(C(=O)NCc3cc4cc(F)c(F)cc4o3)ccc21 [UT120, N-((5,6-difluorobenzofuran-2-yl)methyl)-3,3-dimethyl-2-oxo-1-(2,4,6-trifluorobenzyl) indoline-6-carboxamide] | D* | –
Cc1nn(C)c(CN2C(=O)C(C)(C)c3ccc(C(=O)NCc4cc5ccccc5s4)cc32)c1Br [UT121, N-(benzo[b]thiophen-2-ylmethyl)-1-((4-bromo-1,3-dimethyl-1H-pyrazol-5-yl)methyl)-3,3-dimethyl-2-oxoindoline-6-carboxamide] | D* | –

Other lines, results leading:

Activity (inhibition under basal conditions) | inhibition at 32 µM [%] | Structure (SMILES)
D* | – | C[C@@H](NC(=O)c1ccc2c(c1)N(Cc1c(F)cccc1Cl)C(=O)C2(C)C)c1c(F)cc(F)cc1F [UT065, (R)-1-(2-chloro-6-fluorobenzyl)-3,3-dimethyl-2-oxo-N-(1-(2,4,6-trifluorophenyl)ethyl) indoline-6-carboxamide]
D* | – | C[C@H](NC(=O)c1ccc2c(c1)N(Cc1c(F)cccc1Cl)C(=O)C2(C)C)c1c(F)cc(F)cc1F [UT066, (S)-1-(2-chloro-6-fluorobenzyl)-3,3-dimethyl-2-oxo-N-(1-(2,4,6-trifluorophenyl)ethyl) indoline-6-carboxamide]
– | < 50 | CC1(C)C(=O)N(Cc2c(Cl)cccc2OCc2cc(F)cc(F)c2)c2cc(C(F)(F)F)ccc21 [UT071a, 1-(2-chloro-6-((3,5-difluorobenzyl)oxy)benzyl)-3,3-dimethyl-6-(trifluoromethyl)indolin-2-one]
– | < 50 | CC1(C)C(=O)N(Cc2c(Cl)cccc2OCc2cc(F)cc(F)c2)c2cc(F)ccc21 [UT072, 1-(2-chloro-6-((3,5-difluorobenzyl)oxy)benzyl)-6-fluoro-3,3-dimethylindolin-2-one]
– | < 50 | CC1(C)C(=O)N(Cc2c(Cl)cccc2Oc2cc(F)cc(F)c2)c2cc(F)ccc21 [UT074, 1-(2-chloro-6-(3,5-difluorophenoxy)benzyl)-6-fluoro-3,3-dimethylindolin-2-one]
D* | – | CC1(C)C(=O)N(Cc2c(F)cc(F)cc2F)c2cc(C(=O)NCc3cc4ccccc4o3)ccc21 [UT114, N-(benzofuran-2-ylmethyl)-3,3-dimethyl-2-oxo-1-(2,4,6-trifluorobenzyl)indoline-6-carboxamide]
D* | – | CC1(C)C(=O)N(Cc2c(F)cccc2F)c2cc(-c3ncc(-c4c(F)cc(F)cc4F)o3)ccc21 [UT115, 1-(2,6-difluorobenzyl)-3,3-dimethyl-6-(5-(2,4,6-trifluorophenyl)oxazol-2-yl)indolin-2-one]
D* | – | CC1(C)C(=O)N(Cc2c(F)cccc2F)c2cc(-c3coc(-c4cccc(F)c4)n3)ccc21 [UT117, 1-(2,6-difluorobenzyl)-6-(2-(3-fluorophenyl)oxazol-4-yl)-3,3-dimethylindolin-2-one]
